Measurements as given in patent publication US20020035131A1, “Regimen and kit for amelioration of premature ejaculation” (Pentech Pharmaceuticals, Inc., priority 1999, published 2002).
“And” between values parts separate entries of the source, which are not always exact repeats. Equal entries are not always repeated.

Assays:
[1] = system: normally potent male patients suffering from premature ejaculation; assay: Example 1 prospective study: ejaculatory latency time (ELT) and frequency of intercourse, dose conversion and continual maintenance regimens; type: in vivo, human; details: for mean ELT after treatment: from a mean ELT of less than one minute
Method: The term “premature ejaculation” as used herein refers to ejaculation that occurs within 60 seconds of vaginal intromission. […] The patients were selected on the basis of a having baseline pretreatment ejaculation latency time (“ELT”) of less than about two minutes. An ELT of less than one minute was regarded as severe premature ejaculation dysfunction. In contrast, the average ELT of a normally potent person is about three to about four minutes. The baseline ELT of the patient was determined as the mean of measurements at a minimum of two acts of sexual intercourse prior to commencing treatment using a stopwatch operated by the patient. […] The term “acute” with respect to the dosing means that the patient ingested an oral dose of paroxetine daily after breakfast or lunch for a period of at least one week. The patients were supplied with an ejaculation diary and were asked to record their frequency of coitus, quality of erection and orgasm, and to record their ELT using a stopwatch. The patients were required to attempt coitus on at least two occasions each week at home. In some trials, the patient's partner was also instructed on the use of the stopwatch and asked to record their recollection of the timing of the patient's ejaculation. […] All patients in the study group were heterosexual, had no other sexual disorders and were either married or in a stable relationship. […] The mean age of the 94 patients was 39 years (range 18-61 years). […] Vital signs, such as heart rate, blood pressure and the like were also monitored by the Registered Nurse. […] Of the group, 55 men (59%) had lifelong premature ejaculation, with the remaining 39 men (41%) describing acquired premature ejaculation with previous acceptable ejaculatory control. Of the 55 men with lifelong premature ejaculation, 10 men (18%) had severe lifelong premature ejaculation and had never achieved intravaginal ejaculation. The patients in the study were enrolled into two groups, Group A and Group B. […] Each patient was supplied with an ejaculation diary and instructed to record their frequency of coitus, quality of erection and orgasm, and to measure and record their ejaculatory latency time using a stop-watch. The patients were required to attempt coitus on at least two occasions each week. Statistical analysis: A Student's t-test was used to compare the mean ELT values before and after treatment with paroxetine for each of Groups A and B.

[2] = system: healthy men with a diagnosis of premature ejaculation (PE); assay: Example 3: double-blind, randomized, placebo-controlled three-way crossover safety and efficacy study, 20 and 30 mg capsules; type: in vivo, human; details: for Mean Time in minutes, Reported By Partner / Time in minutes (Range), Reported By Partner / Mean Time in minutes, Reported By Patient / Time in minutes (Range), Reported By Patient / Mean % Change from Baseline, Reported By Partner / Mean % Change from Baseline, Reported By Patient: 6-week treatment period, preliminary data; for Mean Time in minutes, Reported By Partner / Time in minutes (Range), Reported By Partner / Mean Time in minutes, Reported By Patient / Time in minutes (Range), Reported By Patient: male baseline latency ≦ 2 minutes; for Reason for Early Termination: AE (Adverse Experience), patients: crossover of placebo, 20 and 30 mg capsules, not attributed to one treatment
Method: A double-blind, randomized, placebo-controlled, three-way crossover safety and efficacy study was conducted at four clinical sites, A-D. […] The study consisted of a screening period, a baseline period, and three treatment periods, separated by two washout periods. Patients who completed the study participated for about twenty-five weeks. […] Patients who met the selection criteria provided a medical history and submitted to psychosexual and physical examinations at screening. The efficacy of the paroxetine capsules was assessed at each visit by questionnaire. Safety was assessed by physical examinations and adverse experience (AE) reports, if any, were collected throughout the course of the study. A post-treatment physical assessment was performed at the final visit. Qualified patients who were admitted to the study were assigned an identification number in sequential order by enrollment. […] There were about twenty-three patients per sequence. […] Life long history of PE and/or history of PE within the last six months having ≦one minute ejaculation and a perception of lack of control. […] Identically matching placebo capsules were also supplied. Blinding, packaging and labeling was such that each strength of paroxetine capsule and placebo capsule was indistinguishable from one another on the basis of size, appearance, shape, weight, taste, odor finish, and dissolution characteristics. […] A three-week washout (no treatment) period took place between the end of Treatment Period 1 and the start of Treatment Period 2, and between the end of Treatment Period 2 and the start of Treatment Period 3. The following methodology for the study was employed.

[3] = system: central β-adrenergic receptors; details: unlike sertraline; cited from earlier work
[4] = target: P450 2D6 enzyme (Homo sapiens, UniProt P10635); details: cited from earlier work
Chain of P450 2D6 enzyme (P10635 whole entry): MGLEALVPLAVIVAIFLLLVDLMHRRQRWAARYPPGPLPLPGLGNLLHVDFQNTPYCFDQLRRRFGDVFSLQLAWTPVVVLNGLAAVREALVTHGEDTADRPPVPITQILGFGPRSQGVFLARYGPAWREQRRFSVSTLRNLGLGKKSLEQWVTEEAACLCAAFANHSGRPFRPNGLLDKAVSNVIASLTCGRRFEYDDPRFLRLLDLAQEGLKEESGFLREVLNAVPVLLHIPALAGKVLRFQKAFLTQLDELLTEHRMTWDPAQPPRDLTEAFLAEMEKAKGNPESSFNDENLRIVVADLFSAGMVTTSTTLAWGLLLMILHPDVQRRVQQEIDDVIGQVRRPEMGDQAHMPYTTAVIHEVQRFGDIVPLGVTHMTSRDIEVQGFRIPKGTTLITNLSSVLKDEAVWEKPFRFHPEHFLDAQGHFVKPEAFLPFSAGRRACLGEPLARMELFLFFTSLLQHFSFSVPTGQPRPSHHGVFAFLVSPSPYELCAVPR

[5] = Group A-Phase 2: 20 mg continual maintenance dose 3-4 hours prior to intercourse, further four weeks after Phase 1, 53 men
[6] = Group A-Phase 2: 20 mg continual maintenance, the 36/53 patients
[7] = Group B: 20 mg continual maintenance dose only, 3-4 hours prior to intercourse, four weeks, 33 men
[8] = Group B: solely 20 mg continual maintenance, the 14/33 responders
[9] = Group B: solely 20 mg continual maintenance, the 19/33 non-responders

SMILES: Fc1ccc([C@@H]2CCNC[C@H]2COc2ccc3c(c2)OCO3)cc1 (relative stereo) [paroxetine, trans-(−)-3-(1,3-benzodioxol-5-yloxy)methyl-4-(4-fluorophenyl) piperidine]
- patients who achieved and maintained improved ejaculatory control ([1]; Group A overall (36/61): four weeks daily 20 mg followed by conversion to continual maintenance): 59%
- mean Frequency Intercourse Times/Week ([1]; Group A-Phase 1: 20 mg acute dose daily for four weeks, 61 men): 2.4 Times/Week
- mean ELT ([1]; Group A-Phase 1: 20 mg acute dose daily, at four weeks, 61 men): 4.5 min
- patients who regarded their ejaculatory control as significantly improved ([1]; Group A-Phase 1: 20 mg daily for four weeks, 53 of 61 patients): 87%
- ELT of patients with improved ejaculatory control ([1]; Group A-Phase 1: 20 mg daily, after four weeks, the 53/61 responders): 5.1 min
- mean ELT ([1]; Group A-Phase 1: 20 mg daily, after one week of treatment): 1.1 min
- mean ELT ([1]; Group A-Phase 1: 20 mg daily, after two weeks): 1.6 min
- mean ELT of patients without improved control ([1]; Group A-Phase 1: 20 mg daily, at four weeks, the 8/61 non-responders): 0.6 min
- mean ELT ([1]; Group A-Phase 1: 20 mg daily, at three weeks): 3.5 min
- frequency of sexual intercourse acts of patients without improved control ([1]; Group A-Phase 1: 20 mg daily, the 8/61 non-responders): 1.7 times/week
- frequency of sexual intercourse acts of patients with improved ejaculatory control ([1]; Group A-Phase 1: 20 mg daily, the 53/61 responders): 2.5 times/week
- mean ELT [1, 5]: 3.9 min
- mean Frequency Intercourse Times/Week [1, 5]: 2.6 Times/Week
- mean ELT of patients who failed to maintain improved control ([1]; Group A-Phase 2: 20 mg continual maintenance, at four weeks, the 16/53 men): 0.6 min
- frequency of acts of sexual intercourse/week of patients who failed to maintain improved control ([1]; Group A-Phase 2: 20 mg continual maintenance, the 16/53 men): 2.8 acts of sexual intercourse/week
- frequency of acts of sexual intercourse/week of patients who maintained improved control [1, 6]: 2.4 acts of sexual intercourse/week
- mean ELT of patients who maintained improved ejaculatory control [1, 6]: 5.5 min
- patients who failed to maintain improved ejaculatory control (recurrence of premature ejaculation) ([1]; Group A-Phase 2: after conversion from daily to 20 mg continual maintenance, 16/53): 31% and 32%
- patients who maintained improved ejaculatory control ([1]; Group A-Phase 2: four weeks 20 mg continual maintenance after four weeks daily, 36/53): 69% and 68%
- mean ELT [1, 7]: 1.5 min
- mean Frequency Intercourse Times/Week [1, 7]: 2.2 Times/Week
- patients who regarded their ejaculatory control as significantly improved (fraction of patients) ([1]; Group B: solely 20 mg continual maintenance): 14/33
- patients who achieved ejaculatory control ([1]; Group B: solely 20 mg continual maintenance, 14 of 33): 42%
- frequency of acts of sexual intercourse/week of patients with improved control [1, 8]: 2.4 acts of sexual intercourse/week
- mean ELT of patients with improved ejaculatory control [1, 8]: 2.7 min
- frequency of acts of intercourse/week of patients with no change in ejaculatory control [1, 9]: two
- mean ELT of patients with no change in ejaculatory control [1, 9]: 0.4 min
- mean ELT after treatment ([1]; four weeks initial loading and four weeks continual maintenance): greater than 2.5 minutes
- men achieving intra-vaginal ejaculation for the first time ([1]; men with severe lifelong premature ejaculation who had never achieved intra-vaginal ejaculation (including four in Group B)): 10/10
- time to improved ejaculatory control after initiating treatment ([1]; paroxetine oral therapy regimen): 1-2 weeks
- mean ELT after treatment ([1]; solely continual maintenance dosage over about four weeks): at least 1.5 minutes
- Mean Time in minutes, Reported By Partner ([2]; 20 mg capsule daily, n = 26): 6.5 min
- Time in minutes (Range), Reported By Partner ([2]; 20 mg capsule daily, n = 26): (0.4-20) minutes
- Mean Time in minutes, Reported By Patient ([2]; 20 mg capsule daily, n = 28): 6.2 min
- Time in minutes (Range), Reported By Patient ([2]; 20 mg capsule daily, n = 28): (0.5-20) minutes
- Mean % Change from Baseline, Reported By Partner ([2]; 20 mg capsule daily): 225%
- Mean % Change from Baseline, Reported By Patient ([2]; 20 mg capsule daily): 464%
- Mean Time in minutes, Reported By Partner ([2]; 30 mg capsule daily, n = 25): 6.8 min
- Time in minutes (Range), Reported By Partner ([2]; 30 mg capsule daily, n = 25): (0.3-30) minutes
- Mean Time in minutes, Reported By Patient ([2]; 30 mg capsule daily, n = 27): 7 min
- Time in minutes (Range), Reported By Patient ([2]; 30 mg capsule daily, n = 27): (0.25-45) minutes
- Mean % Change from Baseline, Reported By Partner ([2]; 30 mg capsule daily): 240%
- Mean % Change from Baseline, Reported By Patient ([2]; 30 mg capsule daily): 536%
- Reason for Early Termination: AE (Adverse Experience), patients ([2]; Clinical Site A, 10 enrolled): 0
- Reason for Early Termination: AE (Adverse Experience), patients ([2]; Clinical Site B, 9 enrolled): 0
- Reason for Early Termination: AE (Adverse Experience), patients ([2]; Clinical Site C, 15 enrolled): 2
- Reason for Early Termination: AE (Adverse Experience), patients ([2]; Clinical Site D, 19 enrolled): 3
- Reason for Early Termination: AE (Adverse Experience), patients ([2]; TOTALS of sites A-D, 53 enrolled): 5
- affinity for central β-adrenergic receptors [3]: little affinity
- inhibition of the P450 2D6 enzyme [4]: potent inhibitor
